Converted amounts (≈) assume the structure as drawn.
Columns and labels:
HepG2 [1] = assay: Antiproliferative activity against human HepG2 cells assessed as cell growth inhibition at 1 uM measured after 72 hrs by MTT assay relative to control; format: functional; conditions: read-out: GI
Bel-7402 = assay: Antiproliferative activity against human Bel-7402 cells measured after 72 hrs by MTT assay; format: functional, cell-based; conditions: Bel-7402, 72 h
HepG2 [2] = assay: Antiproliferative activity against human HepG2 cells measured after 72 hrs by MTT assay; format: functional, cell-based; conditions: HepG2, 72 h
PANC-1 = assay: Antiproliferative activity against human PANC-1 cells measured after 72 hrs by MTT assay; format: functional, cell-based; conditions: PANC-1, 72 h
ECa-109 cell line = assay: Antiproliferative activity against human Eca-109 cells measured after 72 hrs by MTT assay; format: functional, cell-based; conditions: ECa-109, 72 h
HeLa = assay: Antiproliferative activity against human HeLa cells measured after 72 hrs by MTT assay; format: functional, cell-based
[3] = Cytotoxicity against human L02 cells measured after 72 hrs by MTT assay; format: toxicity, cell-based
[4] = Solubility of the compound in 5% DMSO and 10% Solutol HS-15 saline solution; format: physicochemical
[5] = Selectivity index, ratio of IC50 for human L02 cells to IC50 for human HepG2 cells; format: toxicity; conditions: L02 cells and HepG2 cells, read-out: Ratio IC50

SMILES | inhibition of growth at 1 µM (HepG2 [1]) [%] | IC50 (Bel-7402) [nM] | IC50 (HepG2 [2]) [nM] | IC50 (PANC-1) [nM] | IC50 (ECa-109 cell line) [nM] | IC50 (HeLa) [nM] | IC50 at 72 h [3] [nM] | solubility [4] [µg/mL] | selectivity ratio [5]
C[C@H]1CCC/C=C/[C@@H]2C[C@H](OC(=O)/C=C/c3ccc(N(C)C)cc3)C[C@H]2[C@H](O)/C=C/C(=O)O1 | 47 | – | – | – | – | – | – | – | –
Cc1cccc(/C=C/C(=O)O[C@@H]2C[C@@H]3[C@H](/C=C/CCC[C@H](C)OC(=O)/C=C/[C@H]3OC(=O)/C=C/c3cccc(C)c3)C2)c1 | 6 | – | – | – | – | – | – | – | –
C[C@H]1CCC/C=C/[C@@H]2C[C@H](O)C[C@H]2[C@H](OC(=O)/C=C/c2ccc(C(F)(F)F)cc2)/C=C/C(=O)O1 | 74.9 | 610 | 510 | 580 | 600 | 340 | – | – | –
C[C@H]1CCC/C=C/[C@@H]2C[C@H](O)C[C@H]2[C@H](OC(=O)/C=C/c2cccc(Cl)c2)/C=C/C(=O)O1 | 77.4 | 640 | 730 | 470 | 740 | 800 | – | – | –
Cc1ccccc1/C=C/C(=O)O[C@@H]1C[C@@H]2[C@H](/C=C/CCC[C@H](C)OC(=O)/C=C/[C@H]2OC(=O)/C=C/c2ccccc2C)C1 | 1.7 | – | – | – | – | – | – | – | –
C[C@H]1CCC/C=C/[C@@H]2C[C@H](O)C[C@H]2[C@H](O)/C=C/C(=O)O1 [BREFELDIN A] | 94.4 | 170 | 180 | 80 | 140 | 70 | 100 | 1000 (≈ 3.57 mM) | 0.56
COc1cc(/C=C/C(=O)O[C@@H]2/C=C/C(=O)O[C@@H](C)CCC/C=C/[C@@H]3C[C@H](O)C[C@H]32)cc(OC)c1OC | 65.1 | 1370 | 720 | 820 | 2100 | 1580 | – | – | –
Cc1ccccc1/C=C/C(=O)O[C@@H]1C[C@H]2[C@H](O)/C=C/C(=O)O[C@@H](C)CCC/C=C/[C@@H]2C1 | 28.9 | 2320 | 2980 | 2790 | > 4000 | > 4000 | – | – | –
C[C@H]1CCC/C=C/[C@@H]2C[C@H](OC(=O)/C=C/c3cccc(F)c3)C[C@H]2[C@H](O)/C=C/C(=O)O1 | 71.1 | 920 | 450 | 610 | 2140 | 2740 | – | – | –
C[C@H]1CCC/C=C/[C@@H]2C[C@H](O)C[C@H]2[C@H](OC(=O)/C=C/c2ccccc2F)/C=C/C(=O)O1 | 58.3 | 1060 | 1020 | 1000 | 1660 | 1050 | – | – | –
C[C@H]1CCC/C=C/[C@@H]2C[C@H](OC(=O)/C=C/c3ccccc3F)C[C@H]2[C@H](O)/C=C/C(=O)O1 | 71.1 | 820 | 480 | 860 | 2420 | 2790 | – | – | –
C[C@H]1CCC/C=C/[C@@H]2C[C@H](OC(=O)/C=C/c3ccccc3Br)C[C@H]2[C@H](O)/C=C/C(=O)O1 | 70.5 | 890 | 410 | 280 | 500 | 570 | – | – | –
C[C@H]1CCC/C=C/[C@@H]2C[C@H](OC(=O)/C=C/c3cccc(Cl)c3)C[C@H]2[C@H](O)/C=C/C(=O)O1 | 68.1 | 720 | 890 | 660 | 1450 | 1100 | – | – | –
Cc1ccccc1/C=C/C(=O)O[C@@H]1/C=C/C(=O)O[C@@H](C)CCC/C=C/[C@@H]2C[C@H](O)C[C@H]21 | 37.1 | 1770 | 1860 | 630 | 2680 | 750 | – | – | –
C[C@H]1CCC/C=C/[C@@H]2C[C@H](OC(=O)/C=C/c3ccc(C(F)(F)F)cc3)C[C@H]2[C@H](OC(=O)/C=C/c2ccc(C(F)(F)F)cc2)/C=C/C(=O)O1 | 4.3 | – | – | – | – | – | – | – | –
C[C@H]1CCC/C=C/[C@@H]2C[C@H](OC(=O)/C=C/c3cccc(Cl)c3)C[C@H]2[C@H](OC(=O)/C=C/c2cccc(Cl)c2)/C=C/C(=O)O1 | 6.4 | – | – | – | – | – | – | – | –
Cc1cccc(/C=C/C(=O)O[C@@H]2C[C@H]3[C@H](O)/C=C/C(=O)O[C@@H](C)CCC/C=C/[C@@H]3C2)c1 | 34.7 | 3290 | 1890 | 360 | 2100 | 1120 | – | – | –
C[C@H]1CCC/C=C/[C@@H]2C[C@H](O)C[C@H]2[C@H](OC(=O)/C=C/c2ccc(F)cc2)/C=C/C(=O)O1 | 62 | 790 | 1020 | 570 | 1140 | 750 | – | – | –
COc1cc(/C=C/C(=O)O[C@@H]2C[C@H]3[C@H](O)/C=C/C(=O)O[C@@H](C)CCC/C=C/[C@@H]3C2)cc(OC)c1OC | 4.2 | – | – | – | – | – | – | – | –
